Assay results taken from patent publication US5811439A, “Thiazolidinedione derivatives, method for preparing the derivatives and pharmaceutical compositions containing same” (Senga Pharmaceutical Laboratory Inc., priority 1995, dated 1998).

What follows are molecules tested on 3T3-L1 cells (assay: Glucose-uptake test (2-DOG uptake) in 3T3-L1 cells). Details: 24 hours, cpm divided by amount of proteins.
Type: cell-based
Procedure: Glucose-uptake tests as a means for screening compounds for the effect of reducing the blood sugar level were carried out according to the following procedures. 1) Cell: The following cells were used. 3T3-L1 (purchased from Dainippon Pharmaceutical Co. Ltd.) 2) Reagents: The following reagents were used. DMEM (GIBCO); FBS (GIBCO); […] DMSO: dimethylsulfoxide (Wako Pure Chemical Co., Ltd.); ACS2 (Amersham); urea (Wako Pure Chemical Co., Ltd.); protein-determining kit (Bio Rad Code No.). 3) Instrument: The following instrument was used in the test. 24-well plate (Falcon) 3T3-L1 cells were dispersed in a 10% FBS-containing DME medium in a cell concentration of 10000 cells/ml, the resulting cell suspension was dispensed into a 24-well plate in an amount of 1 ml per well and the cells were cultivated in a 5% CO2 -incubator at 37° C. for 5 days. After soaking up the medium in the wells, the plate was washed once with PBS in an amount of 2 ml/well. […] The cells were cultivated in a sample compound-containing medium at 37° C. for 24 hours in a 5%-CO2 -incubator. After the cultivation, the medium was soaked up and the plate was washed three times with 2 ml/well each of PBS. […] After washing with 2 ml/well of PBS, the PBS was sufficiently soaked up. […] The lysate was also inspected for the amount of proteins using 0.2 ml out of the rest of the lysate, according to the microassay method using a protein-determining kit.
With `O=C1NC(=O)C(Cc2cccc3c2ccn3Cc2ccccn2)S1` (stereo not drawn) [Example 133, 5-[1-(2-picolyl)indol-4-yl]methyl-2,4-thiazolidinedione] the “2-DOG Uptake (%) at a concentration of 50 μg/ml” value was 240%. In the case of `Cl.O=C1NC(=O)C(Cc2cccc3c2ccn3Cc2ccccn2)S1` (stereo not drawn) [Example 337, 5-[1-(2-picolyl)indol-4-yl]methyl-2,4-thiazolidinedione hydrochloride], the “2-DOG Uptake (%) at a concentration of 50 μg/ml” value is reported as 181%.

Same assay, conditions: Mus musculus, 3T3-L1, 24 h, 50 μg/ml, cpm divided by amount of proteins, read-out: 2-DOG Uptake (%) at a concentration of 50 μg/ml
With `N#Cc1cccc(Cn2cc(CC3SC(=O)NC3=O)c3ccccc32)c1` (stereo not drawn) [Example 283, 5-[1-(3-cyanobenzyl)indol-3-yl]methyl-2,4-thiazolidinedione] the activity at 50 µg/mL was 232%. Molecule `Cc1c(C)c2c(c(C)c1O)CCC(C)(COc1ccc(CC3SC(=O)NC3=O)cc1)O2` (racemic) [CS-045, (±)5-[4(6-hydroxy-2,5,7,8-tetramethylchroman-2-yl-methoxy)benzyl2,4-thazolidinedione, reference compound] has an activity at 50 µg/mL of 172%. Molecule `Cc1cccc(Cn2cc(CC3SC(=O)NC3=O)c3ccccc32)c1` (stereo not drawn) [Example 281, 5-[1-(3-methylbenzyl)indol-3-yl]methyl-2,4-thiazolidinedione] has an activity at 50 µg/mL of 244%. `O=C1NC(=O)C(Cc2cccc3c2ccn3Cc2ccc(C(F)(F)F)cc2C(F)(F)F)S1` (stereo not drawn) [Example 83, 5-{1-[2,4-bis(trifluoromethyl)-benzyl]indol-4-yl}methyl-2,4-thiazolidine-dione] showed an activity at 50 µg/mL of 199%. Molecule `O=C1NC(=O)C(Cc2cn(Cc3cc(F)ccc3F)c3ccccc23)S1` (stereo not drawn) [Example 250, 5-[1-(2,5-difluorobenzyl)indol-3-yl]methyl-2,4-thiazolidinedione] has an activity at 50 µg/mL of 209%. `O=C1NC(=O)C(Cc2cccc3c2ccn3Cc2ccc(F)c(F)c2)S1` (stereo not drawn) [Example 68, 5-[1-(3,4-difluorobenzyl)indol-4-yl]-methyl-2,4-thiazolidinedione] showed an activity at 50 µg/mL of 202%. In the case of `O=C1NC(=O)C(Cc2cccc3c2ccn3Cc2ccccc2C(F)(F)F)S1` (stereo not drawn) [Example 74, 5-[1-(2-trifluoromethylbenzyl)indol-4-yl]methyl-2,4-thiazolidinedione], the activity at 50 µg/mL is reported as 210%. Molecule `COC(=O)c1ccc(Cn2ccc3c(C=C4SC(=O)NC4=O)cccc32)cc1` [Example 8, 5-[1-(4-methoxycarbonylbenzyl)indol-4-yl]methylene-2,4-thiazolidinedione] has an activity at 50 µg/mL of 172%. `O=C1NC(=O)C(Cc2cc3ccccc3n2Cc2ccccc2)S1` (stereo not drawn) [Example 312, 5-(1-benzylindol-2-yl)methyl-2,4-thiazolidinedione] gave an activity at 50 µg/mL of 164%. `O=C1NC(=O)C(=Cc2cccc3c2ccn3Cc2ccncc2)S1` [Example 5, 5-[1-(4-picolyl)indol-4-yl]methylene-2,4-thiazolidinedione] gave an activity at 50 µg/mL of 227%. `COc1ccccc1Cn1ccc2c(CC3SC(=O)NC3=O)cccc21` (stereo not drawn) [Example 86, 5-[1-(2-methoxybenzyl)indol-4-yl]methyl-2,4-thiazolidinedione] showed an activity at 50 µg/mL of 161%. `Nc1ccc(Cn2ccc3c(CC4SC(=O)NC4=O)cccc32)cc1` (stereo not drawn) [Example 190, 5-[1-(4-aminobenzyl)indol-4-yl]methyl-2,4-thiazolidinedione] was tested, and the activity at 50 µg/mL was 164%. In the case of `CC1(C)[C@H]2CC=C(Cn3ccc4c(CC5SC(=O)NC5=O)cccc43)[C@@H]1C2` (stereo partly drawn) [Example 199, 5-[1-(1S, 5S, 2-pinen-10-yl)indol-4-yl]methyl-2,4-thiazolidinedione], the activity at 50 µg/mL is reported as 206%. Work on `O=C1NC(=O)C(Cc2cccc3c2ccn3C(=O)Cc2ccccc2)S1` (stereo not drawn) [Example 13, 5-(1-phenylacetylindol-4-yl)methyl-2,4-thiazolidinedione] yielded an activity at 50 µg/mL of 150%. `O=C1NC(=O)C(Cc2cn(Cc3ccc(C(F)(F)F)cc3)c3ccccc23)S1` (stereo not drawn) [Example 271, 5-{1-[4-(trifluoromethyl)benzyl]indol-3-yl}methyl-2,4-thiazolidinedione] was tested, and the activity at 50 µg/mL was 165%. In the case of `Cc1nc(Cn2ccc3c(CC4SC(=O)NC4=O)cccc32)cs1` (stereo not drawn) [Example 142, 5-{1-[(2-methylthiazol-4-yl)methyl]indol-4-yl}methyl-2,4-thiazolidinedione], the activity at 50 µg/mL is reported as 160%. In the case of `Cc1ccc(S(=O)(=O)n2ccc3c(CC4SC(=O)NC4=O)cccc32)cc1` (stereo not drawn) [Example 24, 5-[1-(p-toluenesulfonyl)indol-4-yl]-methyl-2,4-thiazolidinedione], the activity at 50 µg/mL is reported as 186%. Molecule `O=C1NC(=O)C(Cc2cccc3c2ccn3Cc2ccc(C(F)(F)F)cc2)S1` (stereo not drawn) [Example 80, 5-[1-(4-trifluoromethylbenzyl)indol-4-yl]methyl-2,4-thiazolidinedione] has an activity at 50 µg/mL of 210%. `O=C1NC(=O)C(Cc2cccc3c2ccn3CCc2cccs2)S1` (stereo not drawn) [Example 139, 5-{1-[2-(thien-2-yl)ethyl]indol-4-yl}methyl-2,4-thiazolidinedione] gave an activity at 50 µg/mL of 153%. In the case of `Nc1ccc(Cn2cc(CC3SC(=O)NC3=O)c3ccccc32)cc1` (stereo not drawn) [Example 256, 5-[1-(4-aminobenzyl)indol-3-yl]methyl-2,4-thiazolidinedione], the activity at 50 µg/mL is reported as 172%. In the case of `O=C1NC(=O)C(Cc2cn(Cc3ccccc3)c3ccccc23)S1` (stereo not drawn) [Example 288, 5-(1-benzylindol-3-yl)methyl-2,4-thiazolidinedione], the activity at 50 µg/mL is reported as 209%. Work on `COc1ccc(Cn2ccc3c(CC4SC(=O)NC4=O)cccc32)cc1OC` (stereo not drawn) [Example 92, 5-[1-(3,4-dimethoxybenzyl)indol-4-yl]methyl-2,4-thiazolidinedione] yielded an activity at 50 µg/mL of 190%. With `O=C1NC(=O)C(Cc2cn(Cc3cc(F)cc(F)c3)c3ccccc23)S1` (stereo not drawn) [Example 275, 5-[1-(3,5-difluorobenzyl)indol-3-yl]methyl-2,4-thiazolidinedione] the activity at 50 µg/mL was 185%. `O=C1NC(=O)C(Cc2cccc3c2ccn3C(c2ccccc2)c2ccccc2)S1` (stereo not drawn) [Example 177, 5-[1-(benzhydryl)indol-4-yl]methyl-2,4-thiazolidinedione] was tested, and the activity at 50 µg/mL was 159%. In the case of `CCCCCCn1ccc2c(C=C3SC(=O)NC3=O)cccc21` [Example 155, 5-(1-hexylindol-4-yl)methylene-2,4-thiazolidinedione], the activity at 50 µg/mL is reported as 233%. `N#Cc1ccc(Cn2cc(CC3SC(=O)NC3=O)c3ccccc32)cc1` (stereo not drawn) [Example 285, 5-[1-(4-cyanobenzyl)indol-3-yl]methyl-2,4-thiazolidinedione] showed an activity at 50 µg/mL of 225%. `CC#CCn1ccc2c(CC3SC(=O)NC3=O)cccc21` (stereo not drawn) [Example 168, 5-[1-(2-butynyl)indol-4-yl]methyl-2,4-thiazolidinedione] was tested, and the activity at 50 µg/mL was 172%. Work on `O=C1NC(=O)C(Cc2cn(Cc3ccc(Cl)cc3)c3ccccc23)S1` (stereo not drawn) [Example 253, 5-[1-(4-chlorobenzyl)indol-3-yl]methyl-2,4-thiazolidinedione] yielded an activity at 50 µg/mL of 203%. With `Cc1oc(-c2ccccc2)nc1Cn1ccc2c(CC3SC(=O)NC3=O)cccc21` (stereo not drawn) [Example 32, 5-{1-[(5-methyl-2-phenyloxazol-4-yl)methyl]indol-4-yl}methyl-2,4-thiazolidinedione] the activity at 50 µg/mL was 215%. `O=C1NC(=O)C(Cc2cn(Cc3ccc(O)cc3)c3ccccc23)S1` (stereo not drawn) [Example 317, 5-[1-(4-hydroxybenzyl)indol-3-yl]methyl-2,4-thiazolidinedione] gave an activity at 50 µg/mL of 169%. `C=C(C)[C@@H]1CC=C(Cn2ccc3c(CC4SC(=O)NC4=O)cccc32)CC1` (stereo partly drawn) [Example 208, 5-[1-(4S-p-mentha-1,8-dien-7-yl)indol-4-yl]methyl-2,4-thiazolidinedione] gave an activity at 50 µg/mL of 189%. Work on `Cc1oc(-c2ccccc2)nc1Cn1ccc2c(C=C3SC(=O)NC3=O)cccc21` [Example 31, 5-{1-[(5-methyl-2-phenyloxazol-4-yl)methyl]indol-4-yl}methylene-2,4-thiazolidine-dione] yielded an activity at 50 µg/mL of 208%. In the case of `O=C1NC(=O)C(Cc2cccc3c2ccn3Cc2ccncc2)S1` (stereo not drawn) [Example 6, 5-[1-(4-picolyl)indol-4-yl]methyl-2,4-thiazolidinedione], the activity at 50 µg/mL is reported as 166%. With `CC(c1ccccc1)n1ccc2c(C=C3SC(=O)NC3=O)cccc21` (stereo not drawn) [Example 173, 5-[1-(α-methylbenzyl)indol-4-yl]methylene-2,4-thiazolidinedione] the activity at 50 µg/mL was 153%. `CCC(CC)Cn1ccc2c(C=C3SC(=O)NC3=O)cccc21` [Example 158, 5-[1-(2-ethylbutyl)indol-4-yl]methylene-2,4-thiazolidinedione] gave an activity at 50 µg/mL of 221%. For `CC(C)=CCCn1ccc2c(CC3SC(=O)NC3=O)cccc21` (stereo not drawn) [Example 165, 5-[1-(4-methyl-3-pentenyl)indol-4-yl]methyl-2,4-thiazolidinedione], the activity at 50 µg/mL was 285%. `O=C1NC(=O)C(Cc2cn(Cc3cccc(F)c3)c3ccccc23)S1` (stereo not drawn) [Example 273, 5-[1-(3-fluorobenzyl)indol-3-yl]methyl-2,4-thiazolidinedione] showed an activity at 50 µg/mL of 215%. `COc1cccc(Cn2ccc3c(CC4SC(=O)NC4=O)cccc32)c1` (stereo not drawn) [Example 89, 5-[1-(3-methoxybenzyl)indol-4-yl]methyl-2,4-thiazolidinedione] showed an activity at 50 µg/mL of 185%. Molecule `O=C1NC(=O)C(Cc2cccc3c2ccn3Cc2cc(C(F)(F)F)cc(C(F)(F)F)c2)S1` (stereo not drawn) [Example 214, 5-{1-[3,5-bis(trifluoromethyl)benzyl]indol-4-yl}methyl-2,4-thiazolidinedione] has an activity at 50 µg/mL of 185%. Work on `O=C1NC(=O)C(Cc2cccc3[nH]ccc23)S1` (stereo not drawn) [Example 150, 5-(indol-4-yl)methyl-2,4-thiazolidinedione] yielded an activity at 50 µg/mL of 191%.
